Laboratory results published in patent publication US20020156038A1, “Gene expression profiling of antidepressant action in the brain” (priority 2000, published 2002).
Where a name gives a salt, the structure may show the parent alone.

Legend:
male Wistar rats = test: Chronic mild stress (CMS) model, consumption of 1% sucrose solution; type: in vivo, rat; conditions: for sucrose intake as compared to chronic vehicle administration: control animals; for duration of treatment until increase of sucrose intake reached significance / sucrose consumption (CMS-induced deficit) / sucrose intake at end of treatment vs vehicle-treated controls / sucrose intake at end of treatment vs vehicle-treated stressed animals: stressed animals; for sucrose intake at end of treatment vs vehicle-treated controls / sucrose intake at end of treatment vs vehicle-treated stressed animals: Week 5
From the text: Gene expression profiling of antidepressants should be carried in the context of a behavioral model of depression. […] [Willner, 1997 #144] [Yadid, 2000 #422]. The CMS model was developed to mimic anhedonia, a core symptom of depressive disorders. Chronic sequential administration of a variety of mild stressors causes a decrease in responsiveness to rewards in rats, which is reversed by chronic administration of antidepressants drugs [Willner, 1992 #150]. The CMS model of depression also causes a decrease in body weight [Forbes, 1996 #413] but the magnitude of this decrease is minor and the validity, reliability and utility of the CMS is overall well recognized [Yadid, 2000 #422] [Argyropoulos, 1997 #205] #] [Willner, 1996 #226].
On the basis of sucrose intake scores following two weeks of stress, both stressed and control groups were divided further into matched subgroups (n=8), and for the subsequent five weeks received twice-daily intraperitoneal injections of vehicle (isotonic mannitol solution, pH 4.0, 1 ml/kg) or novelR1 (0.16 mg/kg). […] Sucrose tests were carried out twenty-four hours following the last drug injection (in the case of b.i.d. regime, the second injections on the day preceding the sucrose tests were omitted).
The behavioral results obtained in this study were analyzed by multiple analysis of variance with three between-subjects factors (stress/control, drug treatments and successive sucrose tests). Fisher's LSD test was used for post-hoc comparisons of means.

[1] = tested on: tyrosine hydroxylase mRNA; test: Quantitative in situ hybridization histochemistry in locus coeruleus; type: in vivo, rat; conditions: LC
Protocol: In situ hybridization histochemistry was performed according to the procedures described [Bonaventure, 1998 #353] on adjacent tissue sections of the one used for LCM. The plasmid (pBluescript II SK, Stratagene, San Diego, Calif.) containing the cDNA coding for tyrosine hydroxylase (GB:M10244) was linearized and [^35S]UTP labeled cRNA probe was generated by in vitro transcription with T7 polymerase. Sections were hybridized at 50° C. with 1.106 c.p.m of [^35S]UTP labeled cRNA probe (80 μl per section). After high stringency washes, the sections were exposed to Kodak BiomaxMR film for sixteen hours. [^14C] standard strips (American Radiolabeled chemicals Inc., St Louis, Missouri) were co-exposed to allow densitometry. Autoradiograms were quantified with the aid of an MCID-M4 3.0 Image Analysis system (Imaging Research, St. Catharines, Ontario, Canada). Optical densities in the LC were transformed into levels of bound radioactivity after calibration of the image analyzer with grey-values generated by co-exposed standards. The hybridization signal was expressed as μCi/g. The Student's t-test was used for comparison between the groups.

Compound | sucrose intake at the end of the behavioral experiment (male Wistar rats; CMS) [grams] | sucrose intake at the end of the behavioral experiment (male Wistar rats; control) [grams] | sucrose intake as compared to chronic vehicle administration (male Wistar rats) | duration of treatment until increase of sucrose intake reached significance (male Wistar rats) | sucrose consumption (CMS-induced deficit) (male Wistar rats) | sucrose intake at end of treatment vs vehicle-treated controls (male Wistar rats) | sucrose intake at end of treatment vs vehicle-treated stressed animals (male Wistar rats) | up-regulation of tyrosine hydroxylase mRNA level by in situ hybridization ([1]; drug/CMS group) | up-regulation of tyrosine hydroxylase mRNA level by in situ hybridization ([1]; unstressed rats)
Cc1nc2ccccn2c(=O)c1CCN1CCc2oc3ccccc3c2C1 [novelR1] | 13 | 13 | no significant effect | two | fully reversed | did not differ | significantly higher | confirmed | confirmed
CN(C)CCCN1c2ccccc2CCc2ccccc21 [imipramine, imipramine HCl] | 13 | 13 | did not change the sucrose intake | three | gradually increased the sucrose consumption | comparable | significantly higher | confirmed | confirmed
